Experimental data published in patent US20250041377A1, “PHARMACEUTICAL USE” (ENLITISA (SHANGHAI) PHARMACEUTICAL CO., LTD., priority 2018, published 2025).
Where a SMILES comes first, the peptide text is derived from it. Where no end group is shown, it is not given here. [ ]: non-standard residue; d: D form. Dopa = N[C@@H](Cc1ccc(O)c(O)c1)C(=O)O; Hyp = O=C(O)[CH]1C[CH](O)CN1; 3Hyp = 3-hydroxyproline

Assays:
[1] = test system: full thickness skin wound on the back; assay: Acute wound model, remaining wound area; format: in vivo, C57BL/6 mice; details: for ratio of remaining wound area of initial wound: ± SD
Method: 6-8 weeks old male C57BL/6 mice were supplied by Changzhou Cvens Experimental Animal Co. Ltd (Changzhou, Jiangsu Province, China). Prior to any experiments being conducted, mice were housed under standardized conditions (at a constant temperature of 22±2° C., with alternating 12 hour periods of light and darkness), and were fed on a standard mouse diet with water, for about a week.
General anesthesia was induced using intraperitoneal 3% chloral hydrate (1 mL/10 g of body weight). The hair on the back was shaved by a baby hair shaver and depilated with cream. The skin area was wiped and sterilized with 75% alcohol twice.
An EMS skin biopsy punch (Electron Microscopy Sciences, P.O. Box 550, 1560 Industry Road, Hatfield, PA, USA) with a 18 mm diameter was used to make a round wound on the back. The full thickness of skin was removed and the depth of the wound reached the fascia. Wounds were left open without a suture.
(§1) The model group was given same amount of normal saline. There were 8 mice in each group.
Recombinant Human Epidermal Growth Factor (rhEGF, Shanghai Haohai Biological Technology Co. Ltd, 23/F, Shanghai, China) was purchased and prepared according to the manufacturer's instructions. The lyophilized rhEGF powder (100000 IU/vial) was dissolved in 20 mL of normal saline to make a solution with a concentration of 5000 IU/mL. The working dose of rhEGF for this experiment was 1285 IU/wound.
For this experiment, Compound A was also obtained from GL Biochem (Shanghai) Ltd. The peptide powders were stored at −20° C. and dissolved in saline at concentrations of 61.8 μg/mL (Compound A), and 61 μg/mL (Compound B). 50 μL of the solutions were applied onto the wound surfaces.
Wounds were dressed with gauze and transparent dresser after drug administration. Photographs were taken for each wound every other day from Day 0. Photos were scanned into a computer, and wound areas calculated using ImageJ image analysis software (National Institutes of Health, […]).
The unhealed wound area was expressed as a percentage of the original wound area: […]
where A0 and At refer to the initial area at Day 0 and the wound area at the date of measurement (time t), respectively.

[2] = DPPH assay of antioxidant capacity; details: 200 μL peptide solution in 3.8 mL 0.06 mg/mL DPPH; 1.5 hours, room temperature, dark; absorbance 517 nm
Method: The antioxidant capacity of Compound B was determined using a 2,2-diphenyl-1-(2,4,6-trinitrophenyl) hydrazyl (DPPH) assay.
Compounds A and B were obtained as described in Example 3 above. The peptide powders were stored at −20° C. and dissolved in saline at concentrations as indicated below. DPPH was purchased from Sigma-Aldrich China, Shanghai. Other reagents employed and identified below were purchased from Shanghai Aladdin Bio-Chem Technology Co. Ltd., China.
The DPPH method is one of the most commonly used methods in determination of antioxidant capacity. DPPH is a stable, nitrogen-centred free radical with a dark purple solution and a maximum absorption peak at 517 nm. When a free radical scavenger is present in the reaction system, it can be paired with a single electron of DPPH., and the absorption peak at 517 nm is gradually dissipated.
The degree of colour change bears a stoichiometric relationship to the number of paired electrons. Thus, antioxidant activity can be measured according to the change of absorbance. The greater the inhibition rate, the stronger the antioxidant capacity. […]
200 μL of peptide solution was added to 3.8 mL of the DPPH solution. […] The absorbance at 517 nm was measured and was denoted as A1. The absorbance of the blank control sample was denoted as A0. Thus, the percentage of the […] is calculated as: Clearance rate (%)=[A0−A1]/A0×100

[3] = test system: Hyp, VEGF and TGF-β1 in wound tissue; assay: Acute wound model, ELISA of wound tissue; format: in vivo, C57BL/6 mice; details: for wound Hyp content (Mean): indicator of collagen regeneration; for TGF-β1 content (Mean): wound tissue
Description: as §1
Samples were taken at Day 4 and Day 7 post-wound infliction. The mice were sacrificed and the wound tissue taken by the same biopsy punch used to create the wound. Then 5 mm of tissue was cut off from the center of the sample and was preserved in 10% neutral buffered formalin (Nanchang Rain Dew Experimental Equipment Co., Ltd., Nanchang, Hubei Province, China), and analyzed by histological embedding (HE) in paraffin wax, sectioning and staining.
The rest of the samples were stored at −80° C. for further analysis. Tissue was cut into small pieces and liquid nitrogen was added to increase brittleness. 9 mL of normal saline was added to 1 g of tissue, which was then ground using a Tissuelyser (Shanghai Jingxin Industrial Development Co., Ltd., Shanghai, China) at 55 Hz for 60 seconds, followed by centrifuging at 8000 rpm for 10 minutes at 4° C.
The supernatant was collected, and the extracted protein was used for ELISA analysis using standard ELISA test kits and an ELISA reader (SH-1000 Hitachi, Japan). Vascular endothelial growth factor (VEGF), transforming growth factor beta 1 (TGF-β1) and hydroxyproline (Hyp) were assayed. The ELISA kits were purchased from Beijing 4A Biotech Co., Ltd. (Beijing, China).

[4] = Day 0, topical 50 μL/wound once daily, rhEGF 1285 IU/mouse, Compound A 3.09 μg/mouse, Compound B 3.05 μg/mouse

Row | Compound | ratio of remaining wound area of initial wound [1, 4] [%] | ratio of remaining wound area of initial wound ([1]; Day 1, topical once daily) [%] | ratio of remaining wound area of initial wound ([1]; Day 2, topical once daily) [%] | ratio of remaining wound area of initial wound ([1]; Day 3, topical once daily) [%] | ratio of remaining wound area of initial wound ([1]; Day 4, topical once daily) [%] | improvement rate ([1]; Day 4, versus model group) | ratio of remaining wound area of initial wound ([1]; Day 5, topical once daily) [%] | ratio of remaining wound area of initial wound ([1]; Day 6, topical once daily) [%] | DPPH clearance rate [2] [%] | wound Hyp content (Mean) ([3]; Day 4) [µg/mg] | TGF-β1 content (Mean) ([3]; Day 4) [pg/g] | wound Hyp content (Mean) ([3]; Day 7) [µg/mg] | TGF-β1 content (Mean) ([3]; Day 7) [pg/g] | increase of VEGF production in the wounded tissue ([3]; in comparison with model group)
1 | CC(N)C(=O)NC(CCCCN)C(=O)N1CCCC1C(=O)NC(CO)C(=O)NC(Cc1ccc(O)cc1)C(=O)N1CC(O)CC1C(=O)N1CC(O)CC1C(=O)NC(C(=O)NC(Cc1ccc(O)cc1)C(=O)NC(CCCCN)C(=O)O)C(C)O (stereo not drawn) [Compound B, Ala-Lys-Pro-Ser-Tyr-Hyp-Hyp-Thr-Tyr-Lys] (H-AKPSY[Hyp][Hyp]TYK-OH; configuration not given here) | 79.4 ± 3.4 | 100 ± 4.5 | 96.7 ± 5.6 | 76.7 ± 4.8 | 66.5 ± 1.4 | about 10% | 55.8 ± 1.3 | 51.9 ± 1.7 | 8.9 | 2.039 | 20571.8 | 2.810 | 18659.6 | about 56.7%
2 | Ala-Lys-Pro-Ser-Tyr-Hyp-Hyp-Thr-DOPA-Lys (AKPSY[3Hyp][Hyp]T[Dopa]K; listed as Mytilus edulis) [Compound A] | 77.2 ± 4.1 | 100 ± 17.1 | 81.2 ± 11.2 | 74.2 ± 0.9 | 60.9 ± 7.3 | – | 50.5 ± 11.3 | 45.8 ± 4.7 | 52.11 | 3.676 | 11866.2 | 2.694 | 18074.8 | –
